# Patent US5383848A, “Iontophoretic administration of drugs” (Gensia, Inc., priority 1991, dated 1995)
# Several values for one entry are separate records, joined by “and”; a condition that tells them apart may be missing. Equal values may be shown once.
# How the values were obtained:
# [1] = tested on: elevated heart rate; test: In vivo dog experiments: heart rate offset after iontophoretic ESA drug with pretreatment (Example A); parameters: species or system labrador dogs; conditions: for Offset Slope Component (0-5) min: 0-5 min after heart rate begins to decline; for Offset Slope Component (5-10) min: 5-10 min after decline begins; for Offset Slope Component (10-30) min: 10-30 min after decline begins; for Change in Heart Rate (peak minus baseline) / Peak Heart Rate: Table II; for Total time (startup) thru offset plateau: in words: Table IV; for Onset Slope: baseline at onset time to peak heart rate; for Decline in heart rate after ESA drug without pretreatment: control runs, hydrochloride; for Offset time: drug delivery stopped until within 20 bpm of baseline; for Offset Slope: drug shut-off to 20 bpm above baseline; for Delay: drug shut-off to start of heart rate decline; for Onset time: start of delivery to start of increase in heart rate; for Time Start Decline: time when elevated heart rate began to decline
# [2] = tested on: elevated heart rate; test: Additional in vivo dog experiments: dermal clearance enhancer pretreatment then arbutamine TDI (Example C); parameters: species or system labrador dogs; conditions: for CHANGE IN HEART RATE / DELAY TIME / TIME TO REACH 10% DECLINE IN HEART RATE / TIME TO REACH 20% DECLINE IN HEART RATE / TIME TO REACH 30% DECLINE IN HEART RATE / TIME TO REACH 40% DECLINE IN HEART RATE / TIME TO REACH 50% DECLINE IN HEART RATE / HALF-LIFE: single dog run, hydrochloride; for HALF-LIFE: heart rate decline
# Procedure: Additional experiments were performed to study the effect of certain compositions on the offset time and dermal clearance in dogs.
# In these experiments, the formulation to be tested was applied either topically or by transdermal iontophoresis (TDI) as described below.
# Six labrador dogs (20 to 30 kg) were trained to lie quietly on a table. Before each experiment, three ECG electrodes (one lead) were applied on shaved areas of the back (near the front legs) to obtain the heart rate. The outer hind leg area (either right or left) was shaved prior to each experiment, with care taken not to cut or visibly damage the skin. The area was cleaned with soap and water and the skin was then […] using an alcohol swab followed by skin preparation with 3M One-Step-Prep™ tape.
# Each vasodilator that was delivered by TDI used a 1.8 cm^2 electrode (Graphic Controls, Buffalo, N.Y.) containing the vasodilator in a gel at the concentrations listed in experimental methods section. In all experiments, an indifferent electrode containing a phosphate-buffered-saline gel was applied to the skin in conjunction with the electrode containing the vasodilator. Each vasodilator tested was applied for 10 minutes using a current of 0.6 mA/cm^2. During this time the heart rate was continuously recorded (at 5 second intervals) with the ESA Research System. The delivery electrodes were then removed, and any excess gel adhering to the skin was gently removed using a tissue.
# Each topically applied vasodilator was applied to the skin in a volume of approximately 0.25 ml. The agent was allowed to absorb into the skin, during which time the heart rate was continuously recorded for 10 minutes using the ESA Research System.
# To test if heat alone would produce sufficient vasodilation, a 60° C. hot pack was applied to the skin 10 minutes prior to drug delivery, during which time the heat rate was continuously recorded by the ESA System. Once drug delivery electrodes were applied, the heat pack was reheated and placed on top of them for the duration of the study.
# The purpose of this treatment was to produce an elevated heart rate response of at least 40 beats-per-minute above baseline lasting for at least 30 minutes.
# ^1/ The dose (ITCA) was calculated by multiplying the applied current density (mA/cm^2) by the duration of delivery (minutes) and the drug concentration (%) and the area of the electrode (cm^2). […] The units of ITCA are mA.minutes.
# The important variables for this analysis are:
# 1) delay between time when drug administration was stopped and start of decline in heart rate;
# 2) the time (minutes) to reach successive percent levels (i.e. 10, 20, 30, 40, and 50% decline) from the point of maximum change in heart rate^2.
# 3) the half-life (minutes) of the heart rate decline obtained from an exponential fit of the offset slope.
# A combination of over-the-counter (OTC) and proprietary formulations were selected for comparison. […] Two dogs received each treatment at least one time.
# The six dogs are identified in the table as BA, BB, BO, MI, PO and SA, followed by the experimental identification number. These dogs received control (no pretreatment) and five DCE pretreatment regimens.
# [3] = Preclinical and clinical studies using intravenous (IV) infusion of an ESA drug; conditions: in vivo, read-out: Pharmacokinetic and pharmacodynamic half-life
# Procedure: Referring to FIG. 3, dog "PO", 0.08 microgram of GP 2-121-3 per kilogram of dog body weight per minute was administered over a 7 minute period. Referring to FIG. 4, dog "BO", 0.10 microgram of GP 2-121-3per kilogram per minute was administered over a 10 minute period.
# [4] = Protein binding of arbutamine to albumin in IPPSF perfusate; type: in vitro ADME; conditions: bovine, IPPSF perfusate media
smiles,measurement,setting,value
"Cl.Oc1ccc(CCCCNCC(O)c2ccc(O)c(O)c2)cc1 (stereo not drawn) [Arbutamine, 1-(3,4-dihydroxy-phenyl)-2-(4-(4-hydroxyphenyl)butylamino)ethanol hydrochloride]",Offset Slope Component (0-5) min,"[1]; listed as 1, hydrochloride",-0.40 beats per minute per minute
same,Offset Slope Component (0-5) min,"[1]; listed as 2, hydrochloride",-3.70 beats per minute per minute
same,Offset Slope Component (5-10) min,"[1]; listed as 1, hydrochloride",-0.80 beats per minute per minute
same,Offset Slope Component (5-10) min,"[1]; listed as 2, hydrochloride",1.70 beats per minute per minute
same,Offset Slope Component (10-30) min,"[1]; listed as 1, hydrochloride",-0.02 beats per minute per minute
same,Offset Slope Component (10-30) min,"[1]; listed as 2, hydrochloride",-0.50 beats per minute per minute
same,Change in Heart Rate (peak minus baseline),"[1]; listed as 1, hydrochloride",56 bpm
same,Peak Heart Rate,"[1]; listed as 1, hydrochloride",123 bpm
same,Change in Heart Rate (peak minus baseline),"[1]; listed as 2, hydrochloride",87 bpm
same,Peak Heart Rate,"[1]; listed as 2, hydrochloride",160 bpm
same,Total time (startup) thru offset plateau: in words,"[1]; listed as 1, hydrochloride",Never reached to w/in 20 bpm of baseline
same,Total time (startup) thru offset plateau: in words,"[1]; listed as 2, hydrochloride",Never reached to w/in 20 bpm pf baseline
same,Onset Slope,"[1]; listed as 1, hydrochloride",6.80 beats per minute per minute
same,Onset Slope,"[1]; listed as 2, hydrochloride",17.60 beats per minute per minute
same,Decline in heart rate after ESA drug without pretreatment,[1],essentially no reduction in heart rate
same,Decline in heart rate after ESA drug without pretreatment,[1]; listed as ESA™ drug,no decline in heart rate during the first hour
same,Offset time,"[1]; listed as 1, hydrochloride",29.00 min
same,Offset time,"[1]; listed as 2, hydrochloride",39.00 min
same,Offset Slope,"[1]; listed as 1, hydrochloride",-0.30 beats per minute per minute
same,Offset Slope,"[1]; listed as 2, hydrochloride",-0.25 beats per minute per minute
same,Delay,"[1]; listed as 1, hydrochloride",1.50 min
same,Delay,"[1]; listed as 2, hydrochloride",7.00 min
same,Onset time,"[1]; listed as 1, hydrochloride",9.00 min
same,Onset time,"[1]; listed as 2, hydrochloride",5.00 min
same,Time Start Decline,"[1]; listed as 1, hydrochloride",14.00 min
same,Time Start Decline,"[1]; listed as 2, hydrochloride",12.50 min
same,experimental half-life,[2],31 min
same,heart rate following TDI arbutamine without pretreatment,[2]; FIGS. 3 and 4,prolonged elevation of heart rate
same,"CHANGE IN HEART RATE, Mean","[2]; Table VII, mean of runs",74.68 BPM
same,"DELAY TIME, Mean","[2]; Table VII, mean of runs",7.10 min
same,"HALF-LIFE, Mean","[2]; Table VII, mean of runs",30.91 min
same,"TIME TO REACH 10% DECLINE IN HEART RATE, Mean","[2]; Table VII, mean of runs",10.19 min
same,"TIME TO REACH 20% DECLINE IN HEART RATE, Mean","[2]; Table VII, mean of runs",15.98 min
same,"TIME TO REACH 30% DECLINE IN HEART RATE, Mean","[2]; Table VII, mean of runs",21.96 min
same,"TIME TO REACH 40% DECLINE IN HEART RATE, Mean","[2]; Table VII, mean of runs",27.72 min
same,"TIME TO REACH 50% DECLINE IN HEART RATE, Mean","[2]; Table VII, mean of runs",31.37 min
same,CHANGE IN HEART RATE,"[2]; Table VII, listed as Control",52.17 BPM and 123.25 BPM and 60.00 BPM and 88.00 BPM and 87.00 BPM and 63.00 BPM and 78.80 BPM and 54.05 BPM and 88.07 BPM and 94.17 BPM and 54.44 BPM and 58.44 BPM and 77.47 BPM and 82.88 BPM and 77.08 BPM
same,DELAY TIME,"[2]; Table VII, listed as Control",1.57 min and 1.00 min and 60.00 min and 5.50 min and 7.00 min and 5.10 min and 3.66 min and 2.28 min and 0.00 min and 1.67 min and 3.10 min and 9.20 min and 8.54 min and 1.99 min and 1.44 min
same,TIME TO REACH 10% DECLINE IN HEART RATE,"[2]; Table VII, listed as Control",3.20 min and 6.24 min and 60.00 min and 7.07 min and 9.35 min and 8.80 min and 5.53 min and 4.53 min and 2.28 min and 9.66 min and 7.04 min and 10.79 min and 9.50 min and 4.00 min and 4.04 min
same,TIME TO REACH 20% DECLINE IN HEART RATE,"[2]; Table VII, listed as Control",4.83 min and 9.16 min and 60.00 min and 98.65 min and 11.70 min and 7.41 min and 6.79 min and 4.55 min and 19.65 min and 16.54 min and 23.38 min and 10.47 min and 5.04 min and 6.82 min
same,TIME TO REACH 30% DECLINE IN HEART RATE,"[2]; Table VII, listed as Control",6.46 min and 12.67 min and 60.00 min and 10.21 min and 14.16 min and 9.91 min and 9.23 min and 10.58 min and 29.56 min and 23.02 min and 13.98 min and 11.43 min and 8.54 min and 11.63 min
same,TIME TO REACH 40% DECLINE IN HEART RATE,"[2]; Table VII, listed as Control",19.07 min and 17.19 min and 60.00 min and 16.92 min and 18.71 min and 13.84 min and 11.73 min and 22.82 min and 29.50 min and 16.23 min and 12.39 min and 11.49 min and 13.58 min
same,TIME TO REACH 50% DECLINE IN HEART RATE,"[2]; Table VII, listed as Control",22.93 min and 21.70 min and 60.00 min and 24.25 min and 24.54 min and 25.97 min and 16.68 min and 30.00 min and 33.10 min and 18.58 min and 113.35 min and 15.32 min and 15.52 min
same,CHANGE IN HEART RATE,"[2]; Table VII, listed as control",56.00 BPM
same,DELAY TIME,"[2]; Table VII, listed as control",1.50 min
same,TIME TO REACH 10% DECLINE IN HEART RATE,"[2]; Table VII, listed as control",11.00 min
same,TIME TO REACH 20% DECLINE IN HEART RATE,"[2]; Table VII, listed as control",60.00 min
same,TIME TO REACH 30% DECLINE IN HEART RATE,"[2]; Table VII, listed as control",60.00 min
same,TIME TO REACH 40% DECLINE IN HEART RATE,"[2]; Table VII, listed as control",60.00 min
same,TIME TO REACH 50% DECLINE IN HEART RATE,"[2]; Table VII, listed as control",60.00 min
same,HALF-LIFE,"[2]; Table VII, listed as Control",12.53 min and 60.00 min and 20.60 min and 13.72 min and 25.09 min and 52.48 min and 2.42 min and 12.81 min and 9.60 min
same,HALF-LIFE,"[2]; Table VII, listed as control",60.00 min
same,HALF-LIFE,[3],~7 min
same,fraction unbound,[4],0.36
